In the kinase profiling compilation of Christmann-Franck et al. (2016):

Columns and labels:
Experiment in all cases: radiometric filter-binding kinase assay
TEK (human) = TEK (human) (UniProt Q02763)
MARK3 (human) = MARK3 (human) (UniProt P27448)
EIF2AK3 (human) = EIF2AK3 (human) (UniProt Q9NZJ5)
CHEK2 (human) = CHEK2 (human) (UniProt O96017)
IRAK1 (human) = IRAK1 (human) (UniProt P51617)
CDK9 CCNT1 (human) = CDK9 CCNT1 (human) (UniProt P50750+O60563)
STK16 (human) = STK16 (human) (UniProt O75716)
CSNK1G2 (human) = CSNK1G2 (human) (UniProt P78368)
STK24 (human) = STK24 (human) (UniProt Q9Y6E0)
SIK2 (human) = SIK2 (human) (UniProt Q9H0K1)
TSSK1B (human) = TSSK1B (human) (UniProt Q9BXA7)
TESK1 (human) = TESK1 (human) (UniProt Q15569)
ULK1 (human) = ULK1 (human) (UniProt O75385)
Chain of ULK1 (human) (O75385 whole entry, looked up): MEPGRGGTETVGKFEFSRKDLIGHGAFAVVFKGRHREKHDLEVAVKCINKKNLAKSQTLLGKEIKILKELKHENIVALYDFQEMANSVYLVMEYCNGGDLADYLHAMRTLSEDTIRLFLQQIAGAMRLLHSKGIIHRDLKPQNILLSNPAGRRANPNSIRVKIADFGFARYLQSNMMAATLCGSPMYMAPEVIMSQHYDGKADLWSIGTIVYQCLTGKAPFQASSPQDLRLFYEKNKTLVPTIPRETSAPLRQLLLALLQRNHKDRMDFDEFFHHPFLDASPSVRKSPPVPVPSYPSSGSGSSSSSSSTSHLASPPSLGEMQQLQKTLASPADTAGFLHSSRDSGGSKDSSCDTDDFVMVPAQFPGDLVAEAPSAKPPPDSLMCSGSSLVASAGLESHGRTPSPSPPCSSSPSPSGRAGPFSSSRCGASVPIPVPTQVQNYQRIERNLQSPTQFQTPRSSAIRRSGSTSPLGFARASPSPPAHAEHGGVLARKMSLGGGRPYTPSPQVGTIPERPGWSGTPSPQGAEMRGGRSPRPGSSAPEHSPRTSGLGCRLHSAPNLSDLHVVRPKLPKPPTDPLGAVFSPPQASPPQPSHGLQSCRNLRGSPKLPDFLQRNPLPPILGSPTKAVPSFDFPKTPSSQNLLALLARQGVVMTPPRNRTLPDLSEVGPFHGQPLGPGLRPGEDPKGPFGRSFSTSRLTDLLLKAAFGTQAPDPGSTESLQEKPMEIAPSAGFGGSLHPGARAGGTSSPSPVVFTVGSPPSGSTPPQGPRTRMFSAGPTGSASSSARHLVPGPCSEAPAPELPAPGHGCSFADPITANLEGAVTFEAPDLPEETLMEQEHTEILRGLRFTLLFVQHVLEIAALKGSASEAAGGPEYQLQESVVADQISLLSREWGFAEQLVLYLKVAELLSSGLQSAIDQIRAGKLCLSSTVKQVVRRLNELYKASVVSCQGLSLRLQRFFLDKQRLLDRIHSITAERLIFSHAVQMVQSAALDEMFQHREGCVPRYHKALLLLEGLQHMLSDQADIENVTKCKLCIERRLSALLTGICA

[1] = test system: OXSR1 (human), O95747 [T185E]
Chain of OXSR1 (human), O95747 [T185E] (O95747 whole entry T185E, looked up): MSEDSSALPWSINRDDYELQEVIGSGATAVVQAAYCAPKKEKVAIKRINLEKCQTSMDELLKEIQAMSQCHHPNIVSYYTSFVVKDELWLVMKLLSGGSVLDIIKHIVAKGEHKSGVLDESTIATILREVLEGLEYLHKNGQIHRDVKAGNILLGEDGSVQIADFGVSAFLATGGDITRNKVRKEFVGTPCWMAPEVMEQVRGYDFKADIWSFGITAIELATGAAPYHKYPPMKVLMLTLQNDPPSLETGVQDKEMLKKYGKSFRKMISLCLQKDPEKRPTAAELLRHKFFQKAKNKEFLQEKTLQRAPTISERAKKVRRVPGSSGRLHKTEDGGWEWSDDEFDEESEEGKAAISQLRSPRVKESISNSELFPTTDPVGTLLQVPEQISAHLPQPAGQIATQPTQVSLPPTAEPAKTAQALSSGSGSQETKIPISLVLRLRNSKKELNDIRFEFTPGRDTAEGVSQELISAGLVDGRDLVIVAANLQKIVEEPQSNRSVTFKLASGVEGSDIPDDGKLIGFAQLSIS

SIK3 (human) = SIK3 (human) (UniProt Q9Y2K2)
ULK2 (human) = ULK2 (human) (UniProt Q8IYT8)
Chain of ULK2 (human) (Q8IYT8 whole entry, looked up): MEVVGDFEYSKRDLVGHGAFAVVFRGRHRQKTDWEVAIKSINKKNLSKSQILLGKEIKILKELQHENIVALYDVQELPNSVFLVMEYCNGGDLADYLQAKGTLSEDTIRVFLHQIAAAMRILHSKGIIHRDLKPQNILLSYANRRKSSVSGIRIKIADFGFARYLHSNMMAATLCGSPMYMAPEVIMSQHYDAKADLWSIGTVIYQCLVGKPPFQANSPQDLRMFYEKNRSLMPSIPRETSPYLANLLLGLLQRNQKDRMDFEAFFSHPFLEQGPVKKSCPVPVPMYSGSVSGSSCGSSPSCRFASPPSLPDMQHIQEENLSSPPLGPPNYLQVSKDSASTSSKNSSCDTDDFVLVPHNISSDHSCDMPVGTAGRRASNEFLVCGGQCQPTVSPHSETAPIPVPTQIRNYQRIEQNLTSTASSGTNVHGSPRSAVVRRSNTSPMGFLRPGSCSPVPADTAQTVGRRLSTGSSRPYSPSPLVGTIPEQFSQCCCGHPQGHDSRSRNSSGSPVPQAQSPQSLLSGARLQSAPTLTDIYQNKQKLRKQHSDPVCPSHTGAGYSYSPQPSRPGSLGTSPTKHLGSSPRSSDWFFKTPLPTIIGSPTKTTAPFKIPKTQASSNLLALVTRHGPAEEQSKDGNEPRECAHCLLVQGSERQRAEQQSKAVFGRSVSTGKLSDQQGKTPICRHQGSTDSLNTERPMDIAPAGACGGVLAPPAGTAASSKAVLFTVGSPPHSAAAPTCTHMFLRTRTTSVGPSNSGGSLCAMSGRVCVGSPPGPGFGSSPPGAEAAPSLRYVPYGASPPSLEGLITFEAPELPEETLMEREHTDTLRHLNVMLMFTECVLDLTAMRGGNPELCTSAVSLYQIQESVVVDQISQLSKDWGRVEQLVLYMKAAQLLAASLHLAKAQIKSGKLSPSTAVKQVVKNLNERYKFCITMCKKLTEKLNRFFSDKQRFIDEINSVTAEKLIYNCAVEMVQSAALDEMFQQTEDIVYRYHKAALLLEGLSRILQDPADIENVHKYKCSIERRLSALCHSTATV

STK33 (human) = STK33 (human) (UniProt Q9BYT3)
Chain of STK33 (human) (Q9BYT3 whole entry, looked up): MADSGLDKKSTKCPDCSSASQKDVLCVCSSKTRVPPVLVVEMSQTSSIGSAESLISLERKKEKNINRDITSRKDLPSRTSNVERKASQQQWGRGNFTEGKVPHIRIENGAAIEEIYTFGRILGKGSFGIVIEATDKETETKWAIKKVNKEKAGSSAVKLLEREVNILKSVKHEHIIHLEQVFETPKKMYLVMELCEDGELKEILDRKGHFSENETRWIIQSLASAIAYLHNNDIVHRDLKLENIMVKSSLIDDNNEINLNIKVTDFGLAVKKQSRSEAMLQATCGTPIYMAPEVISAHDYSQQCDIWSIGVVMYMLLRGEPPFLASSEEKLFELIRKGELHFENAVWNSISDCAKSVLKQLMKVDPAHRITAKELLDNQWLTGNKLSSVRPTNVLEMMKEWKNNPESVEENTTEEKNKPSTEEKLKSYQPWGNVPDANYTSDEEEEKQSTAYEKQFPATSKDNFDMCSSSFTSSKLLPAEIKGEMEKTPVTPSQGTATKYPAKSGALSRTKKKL

WNK1 (human) = WNK1 (human) (UniProt Q9H4A3)
ABL1 (human) = ABL1 (human) (UniProt P00519)
DDR2 (human) = DDR2 (human) (UniProt Q16832)
TTBK1 (human) = TTBK1 (human) (UniProt Q5TCY1)
PRKCG (human) = PRKCG (human) (UniProt P05129)
PTK6 (human) = PTK6 (human) (UniProt Q13882)
TLK1 (human) = TLK1 (human) (UniProt Q9UKI8)
Chain of TLK1 (human) (Q9UKI8 whole entry, looked up): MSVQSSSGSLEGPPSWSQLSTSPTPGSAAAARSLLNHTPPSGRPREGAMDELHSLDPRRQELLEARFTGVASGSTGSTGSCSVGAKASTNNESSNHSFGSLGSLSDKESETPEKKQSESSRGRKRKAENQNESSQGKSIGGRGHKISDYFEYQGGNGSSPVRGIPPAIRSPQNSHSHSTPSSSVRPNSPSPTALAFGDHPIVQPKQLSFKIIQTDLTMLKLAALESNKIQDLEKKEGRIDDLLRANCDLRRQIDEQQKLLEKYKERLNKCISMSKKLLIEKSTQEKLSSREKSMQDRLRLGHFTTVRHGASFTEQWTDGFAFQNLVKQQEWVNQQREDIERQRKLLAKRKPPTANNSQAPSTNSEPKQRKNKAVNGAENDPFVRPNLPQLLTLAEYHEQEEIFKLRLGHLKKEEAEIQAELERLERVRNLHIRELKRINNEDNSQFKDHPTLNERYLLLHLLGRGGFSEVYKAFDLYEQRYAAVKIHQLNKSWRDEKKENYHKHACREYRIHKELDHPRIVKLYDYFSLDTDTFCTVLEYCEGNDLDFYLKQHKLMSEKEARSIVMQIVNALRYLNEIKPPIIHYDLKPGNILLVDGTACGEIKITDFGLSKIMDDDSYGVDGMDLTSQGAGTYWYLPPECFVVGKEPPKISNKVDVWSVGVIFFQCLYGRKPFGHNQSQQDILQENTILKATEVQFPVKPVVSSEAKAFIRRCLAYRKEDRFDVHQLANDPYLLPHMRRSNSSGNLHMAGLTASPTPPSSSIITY

ZAP70 (human) = ZAP70 (human) (UniProt P43403)

Chain of CDK9 CCNT1 (human) (O60563 whole entry, looked up): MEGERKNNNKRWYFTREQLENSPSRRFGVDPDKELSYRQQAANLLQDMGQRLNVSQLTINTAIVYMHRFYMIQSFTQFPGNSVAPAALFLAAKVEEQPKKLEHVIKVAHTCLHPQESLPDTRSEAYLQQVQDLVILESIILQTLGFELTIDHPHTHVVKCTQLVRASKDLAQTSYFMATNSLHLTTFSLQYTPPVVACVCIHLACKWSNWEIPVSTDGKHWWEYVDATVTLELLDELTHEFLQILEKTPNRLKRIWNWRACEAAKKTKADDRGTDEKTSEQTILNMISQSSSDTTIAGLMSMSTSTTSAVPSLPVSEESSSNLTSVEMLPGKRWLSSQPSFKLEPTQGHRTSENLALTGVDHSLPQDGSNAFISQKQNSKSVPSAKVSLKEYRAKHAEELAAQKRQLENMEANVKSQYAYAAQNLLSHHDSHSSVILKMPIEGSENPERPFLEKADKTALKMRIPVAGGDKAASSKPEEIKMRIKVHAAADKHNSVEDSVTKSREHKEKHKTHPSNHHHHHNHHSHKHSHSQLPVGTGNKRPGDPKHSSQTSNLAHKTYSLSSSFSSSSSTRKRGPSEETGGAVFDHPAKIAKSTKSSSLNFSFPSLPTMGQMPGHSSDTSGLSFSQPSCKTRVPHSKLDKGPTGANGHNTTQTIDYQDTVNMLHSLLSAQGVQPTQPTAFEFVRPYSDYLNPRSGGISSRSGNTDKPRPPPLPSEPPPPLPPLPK
Chain of CDK9 CCNT1 (human) (P50750 whole entry, looked up): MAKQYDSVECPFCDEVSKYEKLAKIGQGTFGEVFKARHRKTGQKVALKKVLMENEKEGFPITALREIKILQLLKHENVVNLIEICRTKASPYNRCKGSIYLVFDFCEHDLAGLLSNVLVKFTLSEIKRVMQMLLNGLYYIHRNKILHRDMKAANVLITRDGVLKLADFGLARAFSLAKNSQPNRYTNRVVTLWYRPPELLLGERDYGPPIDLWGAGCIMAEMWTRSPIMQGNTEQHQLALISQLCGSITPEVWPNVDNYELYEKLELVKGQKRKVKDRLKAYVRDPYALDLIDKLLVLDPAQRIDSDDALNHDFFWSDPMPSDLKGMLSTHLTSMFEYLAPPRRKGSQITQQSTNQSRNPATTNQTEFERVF

COc1cc(O)c2c(c1)[C@H]1OC1C[C@H](O)[C@H](O)C(=O)/C=C\C[C@H](C)OC2=O (stereo partly drawn)
residual activity (TEK (human); compound 0.01 µM): 122% | residual activity (TEK (human); compound 0.1 µM): 101% | residual activity (TEK (human); compound 1.0 µM): 122% | residual activity (MARK3 (human); compound 0.01 µM): 98% | residual activity (MARK3 (human); compound 0.1 µM): 102% | residual activity (MARK3 (human); compound 1.0 µM): 95% | residual activity (EIF2AK3 (human); compound 0.01 µM): 105% | residual activity (EIF2AK3 (human); compound 0.1 µM): 92% | residual activity (CHEK2 (human); compound 0.01 µM): 91% | residual activity (CHEK2 (human); compound 0.1 µM): 91% | residual activity (IRAK1 (human); compound 0.01 µM): 97% | residual activity (IRAK1 (human); compound 0.1 µM): 97% | residual activity (CDK9 CCNT1 (human); compound 0.01 µM): 97% | residual activity (CDK9 CCNT1 (human); compound 0.1 µM): 117% | residual activity (CDK9 CCNT1 (human); compound 1.0 µM): 111% | residual activity (STK16 (human); compound 0.01 µM): 94% | residual activity (STK16 (human); compound 1.0 µM): 102% | residual activity (CSNK1G2 (human); compound 0.01 µM): 100% | residual activity (CSNK1G2 (human); compound 0.1 µM): 100% | residual activity (CSNK1G2 (human); compound 1.0 µM): 109% | residual activity (STK24 (human); compound 0.01 µM): 106% | residual activity (STK24 (human); compound 0.1 µM): 104% | residual activity (STK24 (human); compound 1.0 µM): 114% | residual activity (SIK2 (human); compound 0.01 µM): 106% | residual activity (SIK2 (human); compound 0.1 µM): 107% | residual activity (SIK2 (human); compound 1.0 µM): 88% | residual activity (TSSK1B (human); compound 0.01 µM): 112% | residual activity (TSSK1B (human); compound 0.1 µM): 110% | residual activity (TSSK1B (human); compound 1.0 µM): 99% | residual activity (TESK1 (human); compound 0.1 µM): 107% | residual activity (TESK1 (human); compound 1.0 µM): 92% | residual activity (ULK1 (human); compound 0.01 µM): 91% | residual activity (ULK1 (human); compound 0.1 µM): 88% | residual activity (ULK1 (human); compound 1.0 µM): 92% | residual activity ([1]; compound 0.01 µM): 104% | residual activity ([1]; compound 0.1 µM): 99% | residual activity (SIK3 (human); compound 0.01 µM): 102% | residual activity (SIK3 (human); compound 0.1 µM): 93% | residual activity (SIK3 (human); compound 1.0 µM): 94% | residual activity (ULK2 (human); compound 0.01 µM): 94% | residual activity (ULK2 (human); compound 0.1 µM): 96% | residual activity (STK33 (human); compound 0.01 µM): 113% | residual activity (STK33 (human); compound 0.1 µM): 105% | residual activity (STK33 (human); compound 1.0 µM): 113% | residual activity (WNK1 (human); compound 0.01 µM): 94% | residual activity (WNK1 (human); compound 0.1 µM): 107% | residual activity (WNK1 (human); compound 1.0 µM): 106% | residual activity (ABL1 (human); compound 0.01 µM): 96% | residual activity (ABL1 (human); compound 0.1 µM): 97% | residual activity (ABL1 (human); compound 1.0 µM): 105% | residual activity (DDR2 (human); compound 0.01 µM): 91% | residual activity (DDR2 (human); compound 0.1 µM): 113% | residual activity (TTBK1 (human); compound 0.01 µM): 89% | residual activity (TTBK1 (human); compound 0.1 µM): 82% | residual activity (PRKCG (human); compound 0.01 µM): 103% | residual activity (PRKCG (human); compound 0.1 µM): 109% | residual activity (PRKCG (human); compound 1.0 µM): 89% | residual activity (PTK6 (human); compound 0.01 µM): 101% | residual activity (PTK6 (human); compound 1.0 µM): 48% | residual activity (TLK1 (human); compound 0.01 µM): 95% | residual activity (TLK1 (human); compound 0.1 µM): 101% | residual activity (ZAP70 (human); compound 0.1 µM): 101% | residual activity (ZAP70 (human); compound 1.0 µM): 103%

CN(C)C/C=C/C(=O)Nc1cccc(C(=O)Nc2ccc(Nc3nccc(-c4cccnc4)n3)cc2)c1
residual activity (TEK (human); compound 0.1 µM): 94% | residual activity (TEK (human); compound 1.0 µM): 84% | residual activity (MARK3 (human); compound 0.1 µM): 101% | residual activity (MARK3 (human); compound 1.0 µM): 76% | residual activity (EIF2AK3 (human); compound 0.1 µM): 90% | residual activity (EIF2AK3 (human); compound 1.0 µM): 99% | residual activity (CHEK2 (human); compound 0.1 µM): 89% | residual activity (CHEK2 (human); compound 1.0 µM): 73% | residual activity (IRAK1 (human); compound 0.1 µM): 26% | residual activity (IRAK1 (human); compound 1.0 µM): 5% | residual activity (CDK9 CCNT1 (human); compound 0.1 µM): 22% | residual activity (CDK9 CCNT1 (human); compound 1.0 µM): 42% | residual activity (STK16 (human); compound 0.1 µM): 108% | residual activity (STK16 (human); compound 1.0 µM): 103% | residual activity (CSNK1G2 (human); compound 0.1 µM): 88% | residual activity (CSNK1G2 (human); compound 1.0 µM): 88% | residual activity (STK24 (human); compound 0.1 µM): 94% | residual activity (STK24 (human); compound 1.0 µM): 93% | residual activity (SIK2 (human); compound 0.1 µM): 78% | residual activity (SIK2 (human); compound 1.0 µM): 67% | residual activity (TSSK1B (human); compound 0.1 µM): 88% | residual activity (TSSK1B (human); compound 1.0 µM): 101% | residual activity (TESK1 (human); compound 0.1 µM): 90% | residual activity (TESK1 (human); compound 1.0 µM): 98% | residual activity (ULK1 (human); compound 0.1 µM): 37% | residual activity (ULK1 (human); compound 1.0 µM): 63% | residual activity ([1]; compound 0.1 µM): 99% | residual activity ([1]; compound 1.0 µM): 105% | residual activity (SIK3 (human); compound 0.1 µM): 81% | residual activity (SIK3 (human); compound 1.0 µM): 64% | residual activity (ULK2 (human); compound 0.1 µM): 50% | residual activity (ULK2 (human); compound 1.0 µM): 69% | residual activity (STK33 (human); compound 0.1 µM): 92% | residual activity (STK33 (human); compound 1.0 µM): 91% | residual activity (WNK1 (human); compound 0.1 µM): 103% | residual activity (WNK1 (human); compound 1.0 µM): 117% | residual activity (ABL1 (human); compound 0.1 µM): 77% | residual activity (ABL1 (human); compound 1.0 µM): 85% | residual activity (DDR2 (human); compound 0.1 µM): 89% | residual activity (DDR2 (human); compound 1.0 µM): 108% | residual activity (TTBK1 (human); compound 0.1 µM): 88% | residual activity (TTBK1 (human); compound 1.0 µM): 79% | residual activity (PRKCG (human); compound 0.1 µM): 96% | residual activity (PRKCG (human); compound 1.0 µM): 101% | residual activity (PTK6 (human); compound 0.1 µM): 81% | residual activity (PTK6 (human); compound 1.0 µM): 81% | residual activity (TLK1 (human); compound 0.1 µM): 99% | residual activity (TLK1 (human); compound 1.0 µM): 98% | residual activity (ZAP70 (human); compound 0.1 µM): 82% | residual activity (ZAP70 (human); compound 1.0 µM): 123%
